Reference: the NIST ThermoML archive (doi:10.1016/j.jct.2016.06.023)
± gives the expanded uncertainty stated by the source.

Experiments:
[1] = mn = molality of the nth substance listed, in mol/kg; settings: 101.3 kPa, Liquid, Vibrating tube method, m2 = 0
[2] = 101.3 kPa, Liquid, Vibrating tube method

Structure (SMILES) | mass density ([1]; 278.15 K) [kg/m3] | mass density ([1]; 283.15 K) [kg/m3] | mass density ([1]; 308.15 K) [kg/m3] | mass density ([1]; 328.15 K) [kg/m3] | mass density ([1]; 333.15 K) [kg/m3] | mass density ([1]; 338.15 K) [kg/m3] | mass density ([1]; 343.15 K) [kg/m3] | mass density ([2]; 278.15 K) [kg/m3] | mass density ([2]; 283.15 K) [kg/m3] | mass density ([2]; 308.15 K) [kg/m3] | mass density ([2]; 328.15 K) [kg/m3] | mass density ([2]; 333.15 K) [kg/m3] | mass density ([2]; 338.15 K) [kg/m3] | mass density ([2]; 343.15 K) [kg/m3]
O [water] + O=C(O)CC(=O)O | 999.99 ± 0.4 | 999.73 ± 0.41 | 994.06 ± 0.41 | 985.73 ± 0.4 | 983.24 ± 0.4 | 980.59 ± 0.4 | 977.81 ± 0.4 |  |  |  |  |  |  | 
O [water] |  |  |  |  |  |  |  | 999.99 ± 0.4 | 999.73 ± 0.41 | 994.06 ± 0.41 | 985.73 ± 0.4 | 983.24 ± 0.4 | 980.59 ± 0.4 | 977.81 ± 0.4
